The results in this text go back to ChEMBL document CHEMBL1153873, “Synthesis, antiarrhythmic and anticoagulant activities of novel thiazolo derivatives from methyl 2-(thiazol-2-ylcarbamoyl)acetate” (Eur J Med Chem, 2009).

Calls of active or inactive are those of the source. The calls are words filed in the database; no cut-off is given here.

Data set [1] is described as follows: Toxicity in rat. Format: organism-based. The settings on record: in vivo.
Data set [2] is filed under the species Homo sapiens. Put plainly: Stimulation of antithrombin-3-induced inhibition of human alpha-thrombin at 0.2 to 2000 ug/mL.
The species named for data set [3] is Oryctolagus cuniculus. Put plainly: Stimulation of antithrombin-3-induced inhibition of alpha-thrombin in rabbit plasma assessed as [125I]-thrombin-antithrombin-3 complex formation by SDS-PAGE and autoradiography. Format: cell-free.
The test system of the next data set is Rattus norvegicus. The experiment in a line: Antiarrhythmic activity in Ivanovas rat assessed as increase LD100 at 5 mg/kg, iv administered 5 mins before aconitine infusion. Format: functional, Heart.
The species entered for data set [4] is Oryctolagus cuniculus. The experiment in a line: Stimulation of heparin cofactor-2-induced inhibition of alpha-thrombin in rabbit plasma assessed as [125I]-thrombin-heparin cofactor-2 complex formation by SDS-PAGE and autoradiography. Format: cell-free.
Data set [5] has as its system Oryctolagus cuniculus. The experiment in a line: Increase in bleeding time in New Zealand rabbit at 1 mg/kg, po relative to control. The class given is organism-based. The arrangement: dose 1 mg/kg, route oral. Particulars: in vivo.
The test system of data set [6] is Oryctolagus cuniculus. The experiment in a line: Antithrombotic effect in New Zealand rabbit assessed as incidence of complete arterial occlusion at 3 mg/kg, po relative to control. The class given is functional.
In data set [7] the test system is Plasma. Put plainly: Anticoagulant activity in rabbit plasma assessed as increase in activated partial thromboplastin time. The settings on record: Oryctolagus cuniculus. Format: functional, cell-free.
The species named for data set [8] is Homo sapiens. Put plainly: Stimulation of heparin cofactor-2-induced inhibition of human alpha-thrombin.
Data set [9] concerns Plasma. Put plainly: Anticoagulant activity in human plasma assessed as increase in activated partial thromboplastin time. The class given is functional, cell-free.
The subject of data set [10] is Oryctolagus cuniculus. Put plainly: Anticoagulant activity in New Zealand rabbit assessed as increase in activated partial thromboplastin time at 1 mg/kg, iv relative to untreated control. Format: functional.
In data set [11] the test system is Oryctolagus cuniculus. Put plainly: Antithrombotic effect in New Zealand rabbit assessed as time duration to occlusion at 3 mg/kg, po relative to control. Format: functional.
The subject of data set [12] is Oryctolagus cuniculus. The experiment in a line: Effect on blood pressure in New Zealand rabbit assessed arterial blood pressure at 1 mg/kg, iv after 2 hrs. Format: functional.
Data set [13] deals with Oryctolagus cuniculus. The experiment in a line: Anticoagulant activity in New Zealand rabbit assessed as increase in activated partial thromboplastin time at 1 mg/kg, iv after 120 mins. The class given is functional, organism-based. The arrangement: dose 1 mg/kg.
For data set [14], the system named is Oryctolagus cuniculus. Put plainly: Anticoagulant activity in New Zealand rabbit assessed as increase in activated partial thromboplastin time at 1 mg/kg, po after 8 hrs. The class given is functional, organism-based. Details: dose 1 mg/kg.
The subject of data set [15] is Oryctolagus cuniculus. Put plainly: Anticoagulant activity in New Zealand rabbit assessed as increase in activated partial thromboplastin time at 1 mg/kg, po after 4 hrs relative to untreated control. Format: functional.

What is called LD50 is the dose expected to kill half of the subjects tested. High values mean a less toxic substance, low ones a more toxic substance. For the compound `COC(=O)/C(C(=O)Nc1nccs1)=C1/SC(C(C)=O)=NN1c1ccc(S(N)(=O)=O)cc1`, the LD50 in [1] was determined as 456 mg/kg. In addition, the outcome in the data set filed under Homo sapiens [2] and in the data set listed under Oryctolagus cuniculus [3] was inactive. Also, in the data set with Rattus norvegicus, the Activity amounted to 90.9%. Moreover, in the data set filed under Oryctolagus cuniculus [4], the outcome was Active.
For `O=C(CC(=O)Nn1c(=O)c2cc3c(=O)n(NC(=O)CC(=O)Nc4nccs4)c(=O)c3cc2c1=O)Nc1nccs1`, the “fold change (FC)” value with Oryctolagus cuniculus [5] stood at 3.28; with Oryctolagus cuniculus [10] it was 4; in the data set with Oryctolagus cuniculus [11] it was 10; in the data set on Oryctolagus cuniculus [15] it was 2. The Activity is 42.85% with Oryctolagus cuniculus [6]; “Dose-dependent effect” in the data set on Plasma [7]; “Dose-dependent effect” with Plasma [9]; 86% in the data set on Rattus norvegicus; 68.12 mmHg with Oryctolagus cuniculus [12]. The same compound had an LD50 in data set [1] of 336 mg/kg. The outcome in the data set listed under Homo sapiens [2] and in the data set listed under Oryctolagus cuniculus [3] was inactive. The inhibition entry in the data set listed under Homo sapiens [8] is “Active”. Further, the result in the data set on Oryctolagus cuniculus [13], with Oryctolagus cuniculus [14] and in the data set listed under Oryctolagus cuniculus [4] was Active.
`CC(=O)c1nn(-c2ccc(S(N)(=O)=O)cc2)/c(=N/NC(=O)CC(=O)Nc2nccs2)s1` registered a 50% lethal dose (LD50) in data set [1] of 546 mg/kg. Also, the result in the data set filed under Homo sapiens [2] and in the data set listed under Oryctolagus cuniculus [3] was inactive. In addition, the Activity in the data set with Rattus norvegicus was found to be 85%. Besides, the result in the data set listed under Oryctolagus cuniculus [4] was Active.
As to `COC(=O)/C(C(=O)Nc1nccs1)=C1/SC=C(c2ccccc2)N1c1ccccc1`, the LD50 in data set [1] worked out at 724 mg/kg. In addition, the outcome in the data set filed under Homo sapiens [2] and in the data set filed under Oryctolagus cuniculus [3] was inactive. Further, the Activity with Rattus norvegicus amounted to 88%. Further, the outcome in the data set listed under Oryctolagus cuniculus [4] was Active.
As to `COC(=O)/C(C(=O)Nc1nccs1)=C1/SC(C(C)=O)=C(C)N1c1ccccc1`, the LD50 in [1] amounted to 674 mg/kg. Also, the result in the data set filed under Homo sapiens [2] and in the data set filed under Oryctolagus cuniculus [3] was inactive. Besides, the Activity with Rattus norvegicus was determined as 88.8%. In addition, in the data set filed under Oryctolagus cuniculus [4], the outcome was Active.
For the compound `COC(=O)/C(C(=O)Nc1nccs1)=C(/S)Nc1ccccc1`, the LD50 in data set [1] stood at 543 mg/kg. Besides, the result in the data set listed under Homo sapiens [2] and in the data set filed under Oryctolagus cuniculus [3] was inactive. Besides, the Activity with Rattus norvegicus is 80.2%. Besides, the result in the data set listed under Oryctolagus cuniculus [4] was Active.
`NNC(=O)CC(=O)Nc1nccs1`: the LD50 in [1] is 736 mg/kg. Moreover, the outcome in the data set filed under Homo sapiens [2] and in the data set listed under Oryctolagus cuniculus [3] was inactive. Besides, the Activity in the data set with Rattus norvegicus came out at 87.5%. The result in the data set filed under Oryctolagus cuniculus [4] was Active.
With `CCOC(=O)c1nn(-c2ccc(Br)cc2)/c(=N/NC(=O)CC(=O)Nc2nccs2)s1`, the median lethal dose (LD50) in data set [1] worked out at 342 mg/kg. Further, the outcome in the data set listed under Homo sapiens [2] and in the data set listed under Oryctolagus cuniculus [3] was inactive. In addition, the Activity with Rattus norvegicus was found to be 80.1%. The result in the data set listed under Oryctolagus cuniculus [4] was Active.
Regarding `O=C(CC(=O)NN1C(=O)c2ccc3c4c(ccc(c24)C1=O)C(=O)N(NC(=O)CC(=O)Nc1nccs1)C3=O)Nc1nccs1`, the “fold change (FC)” value was determined as 4.33 with Oryctolagus cuniculus [5], 7 in the data set on Oryctolagus cuniculus [10], 12 with Oryctolagus cuniculus [11] and 3 in the data set with Oryctolagus cuniculus [15]. In addition, the Activity in the data set with Oryctolagus cuniculus [6] was 24.57%; in the data set with Plasma [7], “Dose-dependent effect”; with Plasma [9] it was “Dose-dependent effect”; with Rattus norvegicus, 85%; in the data set with Oryctolagus cuniculus [12], 67.4 mmHg. In data set [1], this compound gave an LD50 of 445 mg/kg. Moreover, the outcome in the data set filed under Homo sapiens [2] and in the data set filed under Oryctolagus cuniculus [3] was inactive. In addition, the inhibition entry in the data set filed under Homo sapiens [8] was “Active”. Also, the outcome in the data set on Oryctolagus cuniculus [13], in the data set on Oryctolagus cuniculus [14] and in the data set listed under Oryctolagus cuniculus [4] was Active.
Regarding `COC(=O)/C(C(=O)Nc1nccs1)=C1/SC=C(C)N1c1ccccc1`, the LD50 in data set [1] is 434 mg/kg. In addition, the result in the data set filed under Homo sapiens [2] and in the data set filed under Oryctolagus cuniculus [3] was inactive. Further, the Activity with Rattus norvegicus worked out at 90.3%. In addition, the result in the data set filed under Oryctolagus cuniculus [4] was Active.
Compound `COC(=O)/C(C(=O)Nc1nccs1)=C1/SCC(=O)N1c1ccccc1` returned an LD50 in data set [1] of 444 mg/kg. Also, the result in the data set listed under Homo sapiens [2] and in the data set filed under Oryctolagus cuniculus [3] was inactive. Also, in the data set with Rattus norvegicus, the Activity was 83%. Further, the result in the data set listed under Oryctolagus cuniculus [4] was Active.
Turning to `O=C(CC(=O)Nn1c(-c2ccccc2)csc1=S)Nc1nccs1`, the LD50 in data set [1] stood at 292 mg/kg. For the same compound, the result in the data set listed under Homo sapiens [2] and in the data set listed under Oryctolagus cuniculus [3] was inactive. In addition, the Activity with Rattus norvegicus was 90.6%. Also, the outcome in the data set listed under Oryctolagus cuniculus [4] was Active.
For `O=C(CC(=O)Nc1nccs1)NNC(=S)[S-].[K+]` [HYDRAZINECARBODITHIONIC ACID POTASSIUM SALT], in data set [1], the LD50 was found to be 723 mg/kg. Further, the result in the data set filed under Homo sapiens [2] and in the data set filed under Oryctolagus cuniculus [3] was inactive. Moreover, the Activity in the data set on Rattus norvegicus is given as 90.15%. The outcome in the data set filed under Oryctolagus cuniculus [4] was Active.
With `COC(=O)/C(C(=O)Nc1nccs1)=C1/SC(C(C)=O)=NN1c1ccc(S(=O)(=O)N2C(=O)c3c(Cl)c(Cl)c(Cl)c(Cl)c3C2=O)cc1`, the LD50 in data set [1] came to 564 mg/kg. Further, the outcome in the data set listed under Homo sapiens [2] and in the data set listed under Oryctolagus cuniculus [3] was inactive. For the same compound, in the data set on Rattus norvegicus, the Activity came out at 88%. Also, the outcome in the data set listed under Oryctolagus cuniculus [4] was Active.
Regarding `CCOC(=O)C1=NN(c2ccc(Cl)cc2)/C(=C(/C(=O)Nc2nccs2)C(=O)OC)S1`, the LD50 in [1] turned out to be 435 mg/kg. Besides, the outcome in the data set listed under Homo sapiens [2] and in the data set listed under Oryctolagus cuniculus [3] was inactive. Moreover, in the data set on Rattus norvegicus, the Activity is 84%. For the same compound, the outcome in the data set filed under Oryctolagus cuniculus [4] was Active.
Compound `O=C(CC(=O)NN1C(=O)c2c(Cl)c(Cl)c(Cl)c(Cl)c2C1=O)Nc1nccs1` gave an LD50 in [1] of 443 mg/kg. Moreover, the result in the data set listed under Homo sapiens [2] and in the data set listed under Oryctolagus cuniculus [3] was inactive. Moreover, the Activity with Rattus norvegicus is recorded as 87.1%. Further, the outcome in the data set listed under Oryctolagus cuniculus [4] was Active.
